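Where inhibition never reached the appropriate level, the endpoint shown equals the highest concentration tested. Otherwise, values were interpolated linearly from a five-concentration, 48-hour dose response in 96-well plates. The concentration for full growth arrest is given as TGI.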 Where a SMILES comes first, the peptide text is derived from it. The star is where a group is joined. Boc = CC(C)(C)OC(=O)*; OBn = c1ccc(CO*)cc1
Legend:
Test in all cases: growth of human tumour cells (NCI), 48 h
786-0 renal = test system: 786-0 renal
A549 NSCLC = test system: A549 NSCLC
ACHN renal = test system: ACHN renal
COLO 205 colon = test system: COLO 205 colon
DU-145 prostate = test system: DU-145 prostate
EKVX NSCLC = test system: EKVX NSCLC
HCT-116 colon = test system: HCT-116 colon
HCT-15 colon = test system: HCT-15 colon
HOP-62 NSCLC = test system: HOP-62 NSCLC
HS 578T breast = test system: HS 578T breast
HT29 colon = test system: HT29 colon
IGROV1 ovarian = test system: IGROV1 ovarian
LOX IMVI melanoma = test system: LOX IMVI melanoma
M14 melanoma = test system: M14 melanoma
MALME-3M melanoma = test system: MALME-3M melanoma
MDA-MB-231 breast = test system: MDA-MB-231 breast
MDA-N = test system: MDA-N
MOLT-4 leukemia = test system: MOLT-4 leukemia
NCI-H460 lung = test system: NCI-H460 lung
NCI-H522 lung = test system: NCI-H522 lung
NCI/ADR-RES ovarian = test system: NCI/ADR-RES ovarian
OVCAR-3 ovarian = test system: OVCAR-3 ovarian
OVCAR-4 ovarian = test system: OVCAR-4 ovarian
OVCAR-8 ovarian = test system: OVCAR-8 ovarian
PC-3 prostate = test system: PC-3 prostate
SF-268 CNS = test system: SF-268 CNS
SF-295 CNS = test system: SF-295 CNS
SK-MEL-2 melanoma = test system: SK-MEL-2 melanoma
SK-MEL-5 melanoma = test system: SK-MEL-5 melanoma
SK-OV-3 ovarian = test system: SK-OV-3 ovarian
SN12C renal = test system: SN12C renal
SNB-75 CNS = test system: SNB-75 CNS
SR leukemia = test system: SR leukemia
SW-620 colon = test system: SW-620 colon
T-47D breast = test system: T-47D breast
UACC-257 melanoma = test system: UACC-257 melanoma
UACC-62 melanoma = test system: UACC-62 melanoma
A498 renal = test system: A498 renal
CAKI-1 renal = test system: CAKI-1 renal
CCRF-CEM leukemia = test system: CCRF-CEM leukemia
HCC-2998 colon = test system: HCC-2998 colon
HL-60(TB) leukemia = test system: HL-60(TB) leukemia
HOP-92 NSCLC = test system: HOP-92 NSCLC
K-562 leukemia = test system: K-562 leukemia
MCF7 breast = test system: MCF7 breast
MDA-MB-435 = test system: MDA-MB-435
NCI-H23 lung = test system: NCI-H23 lung
OVCAR-5 ovarian = test system: OVCAR-5 ovarian
RPMI-8226 leukemia = test system: RPMI-8226 leukemia
SF-539 CNS = test system: SF-539 CNS
SK-MEL-28 melanoma = test system: SK-MEL-28 melanoma
SNB-19 CNS = test system: SNB-19 CNS
TK-10 renal = test system: TK-10 renal
U251 CNS = test system: U251 CNS
UO-31 renal = test system: UO-31 renal

CN(Cc1cnc2nc(N)nc(N)c2n1)c1ccc(C(=O)NC(CCC(=O)NCC(P(=O)(O)O)P(=O)(O)O)C(=O)O)cc1 (configuration not stated)
TGI (786-0 renal): > 100 µM | TGI (A549 NSCLC): > 100 µM | TGI (ACHN renal): > 100 µM | TGI (COLO 205 colon): > 100 µM | TGI (DU-145 prostate): > 100 µM | TGI (EKVX NSCLC): > 100 µM | TGI (HCT-116 colon): > 100 µM | TGI (HCT-15 colon): > 100 µM | TGI (HOP-62 NSCLC): 68 µM | TGI (HS 578T breast): > 100 µM | TGI (HT29 colon): > 100 µM | TGI (IGROV1 ovarian): > 100 µM | TGI (LOX IMVI melanoma): > 100 µM | TGI (M14 melanoma): > 100 µM | TGI (MALME-3M melanoma): > 100 µM | TGI (MDA-MB-231 breast): > 100 µM | TGI (MDA-N): > 100 µM | TGI (MOLT-4 leukemia): > 100 µM | TGI (NCI-H460 lung): > 100 µM | TGI (NCI-H522 lung): > 100 µM | TGI (NCI/ADR-RES ovarian): > 100 µM | TGI (OVCAR-3 ovarian): > 100 µM | TGI (OVCAR-4 ovarian): > 100 µM | TGI (OVCAR-8 ovarian): > 100 µM | TGI (PC-3 prostate): > 100 µM | TGI (SF-268 CNS): > 100 µM | TGI (SF-295 CNS): > 100 µM | TGI (SK-MEL-2 melanoma): > 100 µM | TGI (SK-MEL-5 melanoma): > 100 µM | TGI (SK-OV-3 ovarian): > 100 µM | TGI (SN12C renal): > 100 µM | TGI (SNB-75 CNS): > 100 µM | TGI (SR leukemia): > 100 µM | TGI (SW-620 colon): > 100 µM | TGI (T-47D breast): > 100 µM | TGI (UACC-257 melanoma): > 100 µM | TGI (UACC-62 melanoma): > 100 µM

CC(C)(C)OC(=O)NC(Cc1ccccc1)C(=O)NC(Cc1ccccc1)C(=O)NCC(=O)OCc1ccccc1 (stereo not drawn) (Boc-Phe-Phe-Gly-OBn; configuration not given here)
TGI (786-0 renal): 31.6 µM | TGI (A498 renal): > 100 µM | TGI (ACHN renal): > 100 µM | TGI (CAKI-1 renal): > 100 µM | TGI (CCRF-CEM leukemia): 43.1 µM | TGI (COLO 205 colon): > 100 µM | TGI (DU-145 prostate): 33.2 µM | TGI (EKVX NSCLC): > 100 µM | TGI (HCC-2998 colon): 29.8 µM | TGI (HCT-116 colon): 40.2 µM | TGI (HCT-15 colon): 64.7 µM | TGI (HL-60(TB) leukemia): 57.6 µM | TGI (HOP-62 NSCLC): 91.7 µM | TGI (HOP-92 NSCLC): > 100 µM | TGI (HT29 colon): 40.4 µM | TGI (IGROV1 ovarian): 26.5 µM | TGI (K-562 leukemia): 31.4 µM | TGI (LOX IMVI melanoma): 24.5 µM | TGI (M14 melanoma): 62.7 µM | TGI (MALME-3M melanoma): > 100 µM | TGI (MCF7 breast): > 100 µM | TGI (MDA-MB-435): > 100 µM | TGI (MDA-N): 53.3 µM | TGI (MOLT-4 leukemia): 56 µM | TGI (NCI-H23 lung): 80.7 µM | TGI (NCI-H460 lung): 49.9 µM | TGI (NCI-H522 lung): 48.8 µM | TGI (NCI/ADR-RES ovarian): > 100 µM | TGI (OVCAR-3 ovarian): 46.1 µM | TGI (OVCAR-4 ovarian): > 100 µM | TGI (OVCAR-5 ovarian): > 100 µM | TGI (OVCAR-8 ovarian): > 100 µM | TGI (PC-3 prostate): 35.8 µM | TGI (RPMI-8226 leukemia): 39.6 µM | TGI (SF-268 CNS): 29.4 µM | TGI (SF-539 CNS): 44.1 µM | TGI (SK-MEL-2 melanoma): > 100 µM | TGI (SK-MEL-28 melanoma): 42.7 µM | TGI (SK-OV-3 ovarian): 46 µM | TGI (SN12C renal): 85.9 µM | TGI (SNB-19 CNS): > 100 µM | TGI (SNB-75 CNS): 59 µM | TGI (SR leukemia): 44.6 µM | TGI (SW-620 colon): 28.4 µM | TGI (T-47D breast): > 100 µM | TGI (TK-10 renal): 53.1 µM | TGI (U251 CNS): 36.3 µM | TGI (UACC-257 melanoma): > 100 µM | TGI (UACC-62 melanoma): 38.7 µM | TGI (UO-31 renal): > 100 µM

From PubChem BioAssay (NCI)
